Laboratory results reported in US9572881B2, “Halogenated compounds for photodynamic therapy” (Nanoquantum Sciences, Inc., priority 2012, dated 2017).
“And” between values parts separate entries of the source, which are not always exact repeats. Identical values can stand only once.

Experiments:
[1] = Singlet oxygen quantum yield, DPBF scavenger method in ethanol; type: physicochemical; conditions: measured in ethanol, 650 nm laser, ICG reference
Protocol: The modified relative photochemical method of Spiller W. et al. (J. Porphyrins Phthalocyanines, 1998, V. 2, 145-158) utilizing 1,3-diphenylisobenzofuran (DPBF) as a chemical scavenger was used to determine the photosensitiser's singlet oxygen quantum yields (ΦΔ) in ethanol solutions.
Ethanolic solutions containing DPBF (10 μM) and sensitizers with absorbance (optical density) in a range between 0.09 and 0.10 at 650 nm (measured in a standard 1-cm quartz cell) were prepared. Samples were saturated with oxygen by bubbling. Next, 3 mL of the solution were placed in a 1-cm cell equipped with a stirring bar and a 10 mW, 650 nm diode laser was hermetically attached to the top of cuvette so as to avoid solvent evaporation and to provide a light beam direction from top to bottom of the cuvette. The solution in the cuvette was irradiated with the diode laser under continuous stirring for a certain time. DPBF consumption was determined by monitoring DPBF bleaching over irradiation time using absorption spectroscopy at 411 nm (extinction coefficient 22,000 M^−1 cm^−1). At least six absorption spectra were obtained for each solution at different irradiation times until the DPBF absorbance reduced at least to the 10% of the initial absorbance.
The decrease of DPBF absorbance at 411 nm versus irradiation time was plotted for each photosensitizer and the DPBF degradation rate constant (K) characterizing the reaction rate of singlet oxygen with DPBF in presence of a sensitizer was calculated.

[2] = Absorption spectra and extinction coefficients of dyes; type: physicochemical
Protocol: Absorption spectra were measured at RT on a Perking Elmer Lambda 35 UV/Vis spectrophotometer. […] The stock solution was diluted (1:2000) and the absorbance was measured in a 5-cm standard quartz cell. All dye concentrations were in the range of 1.1 to 2.0×10^−7 M. The extinction coefficients were calculated according to Lambert-Beer's law.

[3] = Phototoxicity (glow lamp) and dark toxicity by hemolysis of bovine erythrocytes; type: cell-based; conditions: bovine, bovine erythrocytes, Glow Lamp; for hemolysis at 30 min, 0.5 µM: exposure 30 min
Protocol: (§1) Bovine erythrocytes were isolated from blood plasma stored with sodium citrate. 1 mL of bovine blood was treated at centrifuge (3,000 rpm) for 10 min to precipitate erythrocytes. The supernatant was decanted, 2 mL of physiological solution were added, treated and erythrocytes were precipitated with centrifuge. The washing procedure was repeated for 3 times and the precipitated erythrocytes were collected. […] Cells were dye-incubated for 45 minutes at 37° C. in the dark. Then the examined suspensions of cells (erythrocytes) were placed at a distance of 30-cm from a 250 W glow red-lamp equipped with a water-based heat filter and irradiated with occasional stirring. After irradiation, cells were stored at 4° C. for 15 hours. […] The hemolysis level (percentage of hemolyzed cells) was determined as the ratio of absorbances of the supernatant and a solution of 100% hemolysed cells. The 100% hemolysis was taken as the value obtained when the given number of erythrocytes were suspended in distilled water.

bovine erythrocytes = test: as above; type: cell-based; conditions: Dark
Protocol: as §1

[4] = cited from earlier work
[5] = Fluorescence emission spectra and quantum yield relative to HITC; type: physicochemical; conditions: for QY (fluor): given as fraction in synthesis example
Protocol: Fluorescence spectra for the dyes were determined at RT on a Varian Cary Eclipse spectrofluorometer in a standard 1-cm quartz cell. The spectra were corrected. All concentrations of the fluorophores were chosen to be between 0.2 and 1.0 μM.
For the determination of the quantum yields (QY), the integrated relative intensities of the dyes or dye-protein conjugates, were measured against HITC as the reference. All absorbances at excitation wavelength (λexc) were in the range of 0.04-0.08 (when measured in a 1-cm cell).
The QY of each sample was independently measured 3-4 times and the average value was calculated.

[6] = ethanol; reference value from Cardillo et al.; cited from earlier work
[7] = background statement, at ~780 nm; cited from earlier work

CN1\C(=C/C=C/C=C/C=C/C2=[N+](C)c3ccccc3C2(C)C)C(C)(C)c2ccccc21.[I-] [HITC, 1,1′,3,3,3′,3′-hexamethylindotricarbocyanine, reference compound]
Singlet oxygen generation quantum yield ΦΔ [1]: 5%
Absorption max. ([2]; Methanol): 740 nm
hemolysis at 60 min, 1 µM ([3]; 1 μM, exposure 60 min): 4.4%
hemolysis at 120 min, 1 µM ([3]; 1 μM, exposure 120 min): 5.4%
hemolysis at 60 min, 5 µM ([3]; 5 μM, exposure 60 min): 65%
hemolysis at 120 min, 5 µM ([3]; 5 μM, exposure 120 min): 74%
Hemolysis (bovine erythrocytes; 5 μM): 2.0%
Hemolysis (bovine erythrocytes; 10 μM): 6.7%
QY of reference ([4]; in methanol, reference standard): 28%
Emission max. ([5]; Methanol): 768 nm
Fluorescence quantum yield ([5]; Methanol): 28%

CN1\C(=C/C=C/C=C/C=C/C2=[N+](C)c3ccc(I)cc3C2(C)C)C(C)(C)c2cc(I)ccc21.[I-] [I-25]
Singlet oxygen generation quantum yield ΦΔ [1]: 20%
Absorption max. ([2]; Chloroform): 771 nm
Absorption max. ([2]; Methanol): 753 nm
Absorption max. ([2]; Water): 750 nm
hemolysis at 60 min, 0.1 µM ([3]; exposure 60 min): 39%
hemolysis at 30 min, 0.5 µM [3]: 83%
Hemolysis (bovine erythrocytes; 50 μM): 51%
Emission max. ([5]; Chloroform): 801 nm
Emission max. ([5]; Methanol): 784 nm
Fluorescence quantum yield ([5]; Methanol): 30%
Emission max. ([5]; Water): 779 nm

CN1\C(=C/C=C/C=C/C=C/C2=[N+](C)c3cc(I)cc(I)c3C2(C)C)C(C)(C)c2c(I)cc(I)cc21.[I-] [I-71, 2-[7-(4,6-diiodo-1,3,3-trimethyl-2,3-dihydro-1H-2-indolyliden)-1,3,5-heptatrienyl]-4,6-diiodo-1,3,3-trimethyl-3H-indolium iodide]
Singlet oxygen generation quantum yield ΦΔ [1]: 19%
Absorption max. ([2]; Methanol): 745 nm
hemolysis at 60 min, 0.1 µM ([3]; exposure 60 min): 21%
hemolysis at 30 min, 0.5 µM [3]: 75%
Hemolysis (bovine erythrocytes; 5 μM): 2%
Hemolysis (bovine erythrocytes; 50 μM): 30%
Emission max. ([5]; Methanol): 773 nm
Fluorescence quantum yield ([5]; Methanol): 46%
QY (fluor) ([5]; methanol): 0.46

CN1\C(=C/C=C/C=C/C=C/C2=[N+](C)c3cc(I)c(I)c(I)c3C2(C)C)C(C)(C)c2c1cc(I)c(I)c2I.[I-] [I-76, 4,5,6-triiodo-1,3,3-trimethyl-2-[7-(4,5,6-triiodo-1,3,3-trimethyl-2,3-dihydro-1H-2-indolyliden)-1,3,5-heptatrienyl]-3H-indolium iodide]
Singlet oxygen generation quantum yield ΦΔ [1]: 50%
Absorption max. ([2]; Methanol): 754 nm and 755 nm
hemolysis at 60 min, 0.1 µM ([3]; exposure 60 min): 43%
hemolysis at 30 min, 0.5 µM [3]: 46%
Hemolysis (bovine erythrocytes; 5 μM): 2%
Hemolysis (bovine erythrocytes; 50 μM): 12%
Emission max. ([5]; Methanol): 785 nm
Fluorescence quantum yield ([5]; Methanol): 43%

CC1(CCCCCC(=O)O)C(/C=C/C=C/C=C/C=C2\N(CCCS(=O)(=O)O)c3cc(I)c(I)c(I)c3C2(C)CCCCCC(=O)O)=[N+](CCCS(=O)(=O)[O-])c2cc(I)c(I)c(I)c21 (centres unmarked) [I-86, 3-(3-(5-carboxypentyl)-2-7-[3-(5-carboxypentyl)-4,5,6-triiodo-3-methyl-1-(3-sulfopropyl)-2,3-dihydro-1H-2-indolyliden]-1,3,5-heptatrienyl-4,5,6-triiodo-3-methyl-3H-1-indoliumyl)-1-propanesulfonate]
Singlet oxygen generation quantum yield ΦΔ [1]: 13%
Absorption max. ([2]; BSA conjugate): 778 nm
Absorption max. ([2]; Methanol): 765 nm
Extinction Coefficient ([2]; Methanol): 210,000 M^−1cm^−1
Absorption max. ([2]; Water): 721 nm and 760 nm
Extinction Coefficient ([2]; Water): 100,000 M^−1cm^−1
Extinction coefficient ε at λmax (abs) ([2]; water, synthesis example, no unit): 210,000
hemolysis at 60 min, 0.1 µM ([3]; exposure 60 min): 70%
hemolysis at 30 min, 0.5 µM [3]: 74%
Hemolysis (bovine erythrocytes; 10 μM): 3%
Emission max. ([5]; BSA conjugate): 796 nm
Fluorescence quantum yield ([5]; BSA conjugate, subject to D/P): 5-7%
Emission max. ([5]; Methanol): 795 nm
Fluorescence quantum yield ([5]; Methanol): 44%
Emission max. ([5]; Water): 786 nm
QY (fluor) ([5]; methanol): 0.44
QY (fluor) ([5]; water): 0.006

CC1(C)C(/C=C/C=C/C=C/C=C2\N(CCCCS(=O)(=O)[O-])c3ccc4ccccc4c3C2(C)C)=[N+](CCCCS(=O)(=O)[O-])c2ccc3ccccc3c21.[Na+] [ICG, Indocyanine green, reference compound]
Singlet oxygen generation quantum yield ΦΔ [1]: 12%
Extinction Coefficient ([2]; Methanol): 200,000 M^−1cm^−1
Extinction Coefficient ([2]; Water): 114,000 M^−1cm^−1
singlet oxygen quantum yield ΦΔ of reference [6]: 12%
extinction coefficients [7]: 200,000 M^−1 cm^−1
quantum yield (reporter) ([4]; in water, background statement): 0.5-1.3%
Emission max. ([5]; Methanol): 818 nm
Fluorescence quantum yield ([5]; Methanol): 16%
Emission max. ([5]; Water): 810 nm
